Patent US10202361B2, “Pyridazinones as herbicides” (E I DU PONT DE NEMOURS AND COMPANY, priority 2014, dated 2019)
Read-outs that look alike come from different tables or passages of the source.

Tests used:
Assay type in all cases: in vivo
[1] = system: barnyardgrass (Echinochloa crus-galli); assay: Test A pre-/postemergence greenhouse herbicide test; details: Echinochloa crus-galli, 240 h, 0 to 100 scale (0 no effect, 100 complete control), approx. 10 d, read-out: Plant response rating, Barnyardgrass; for pest or weed control at 125 g/ha: 125 g ai/ha; for pest or weed control at 500 g/ha: 500 g ai/ha
Procedure, shortened: (§1)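 Injury was scored visually on a 0–100 scale (100 = complete control) about 10 d after spraying, relative to untreated plants. Compounds were formulated in solvent plus surfactant and applied as soil spray preemergence or to 2–10 cm, one- to two-leaf seedlings postemergence.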

corn (Zea mays) = assay: as above; details: Zea mays, 240 h, 0 to 100 scale (0 no effect, 100 complete control), approx. 10 d; for Corn plant response rating (crop injury, 0 = no effect, 100 = complete kill) at 125 g/ha: 125 g ai/ha; for Corn plant response rating (crop injury, 0 = no effect, 100 = complete kill) at 500 g/ha: 500 g ai/ha
Procedure, shortened: as §1

[2] = system: crabgrass, Large (large crabgrass, Digitaria sanguinalis); assay: as above; details: Digitaria sanguinalis, 240 h, 0 to 100 scale (0 no effect, 100 complete control), approx. 10 d, read-out: Plant response rating, Crabgrass, Large; for pest or weed control at 125 g/ha: 125 g ai/ha; for pest or weed control at 500 g/ha: 500 g ai/ha
Procedure, shortened: as §1

[3] = system: foxtail, giant (giant foxtail, Setaria faberii); assay: as above; details: Setaria faberi, 240 h, 0 to 100 scale (0 no effect, 100 complete control), approx. 10 d, read-out: Plant response rating, Foxtail, Giant; for pest or weed control at 125 g/ha: 125 g ai/ha; for pest or weed control at 500 g/ha: 500 g ai/ha
Procedure, shortened: as §1

[4] = system: pigweed (Amaranthus retroflexus); assay: as above; details: Amaranthus retroflexus, 240 h, 0 to 100 scale (0 no effect, 100 complete control), approx. 10 d, read-out: Plant response rating, Pigweed; for pest or weed control at 125 g/ha: 125 g ai/ha; for pest or weed control at 500 g/ha: 500 g ai/ha
Procedure, shortened: as §1

[5] = system: velvetleaf (Abutilon theophrasti); assay: as above; details: Abutilon theophrasti, 240 h, 0 to 100 scale (0 no effect, 100 complete control), approx. 10 d, read-out: Plant response rating, Velvetleaf; for pest or weed control at 125 g/ha: 125 g ai/ha; for pest or weed control at 500 g/ha: 500 g ai/ha
Procedure, shortened: as §1

[6] = system: wheat (Triticum aestivum); assay: as above; details: Triticum aestivum, 240 h, 0 to 100 scale (0 no effect, 100 complete control), approx. 10 d, read-out: Plant response rating, Wheat; for plant injury at 125 g/ha: 125 g ai/ha; for plant injury at 500 g/ha: 500 g ai/ha
Procedure, shortened: as §1

rice (Oryza sativa) = assay: Test B flooded paddy test; details: Oryza sativa, 312 h; Flood, 125 g ai/ha; scale of 0 to 100, 0 is no effect, 100 is complete control; 13 to 15 d; read-out: Plant response rating, Rice
Procedure, shortened: (§2)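 Visual ratings, 0 meaning no effect and 100 complete control, were made relative to untreated controls 13–15 d after treatment in a greenhouse. Treatment was by addition to paddy water 3 cm above the soil, maintained for the test, on 2-leaf-stage plants.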

[7] = system: sedge, umbrella (small-flower umbrella sedge, Cyperus difformis); assay: Test B flooded paddy test; details: Cyperus difformis, 312 h; Flood, 125 g ai/ha; scale of 0 to 100, 0 is no effect, 100 is complete control; 13 to 15 d; read-out: Plant response rating, Sedge, Umbrella
Procedure, shortened: as §2

[8] = system: chickweed (common chickweed, Stellaria media); assay: Test C postemergence greenhouse herbicide test
Excerpt: At the same time, plants selected from these crop and weed species and also barley (winter barley, Hordeum vulgare), canarygrass (Phalaris minor), windgrass (Apera spica-venti), deadnettle (henbit deadnettle, Lamium amplexicaule), and chickweed (common chickweed, Stellaria media) were planted in pots containing Redi-Earth® planting medium (Scotts Company, 14111 Scottslawn Road, Marysville, Ohio 43041) comprising spaghnum peat moss, vermiculite, wetting agent and starter nutrients and treated with postemergence applications of test chemicals formulated in the same manner. Plants ranged in height from 2 to 18 cm (1- to 4-leaf stage) for postemergence treatments. Treated plants and controls were maintained in a greenhouse for 13 to 15 d, after which time all species were compared to controls and visually evaluated. Plant response ratings, summarized in Table C, are based on a scale of 0 to 100 where 0 is no effect and 100 is complete control. A dash (-) response means no test result.

[9] = system: morningglory (Ipomoea spp.); assay: Test A pre-/postemergence greenhouse herbicide test; details: Ipomoea, 240 h, 0 to 100 scale (0 no effect, 100 complete control), approx. 10 d, read-out: Plant response rating, Morningglory; for pest or weed control at 125 g/ha: 125 g ai/ha; for pest or weed control at 500 g/ha: 500 g ai/ha
Procedure, shortened: as §1

Structure (SMILES) | pest or weed control at 125 g/ha ([1]; post-emergence, Postemergence) [%] | pest or weed control at 500 g/ha ([1]; post-emergence, Postemergence) [%] | pest or weed control at 125 g/ha ([1]; pre-emergence, Preemergence) [%] | pest or weed control at 500 g/ha ([1]; pre-emergence, Preemergence) [%] | Corn plant response rating (crop injury, 0 = no effect, 100 = complete kill) at 125 g/ha (corn (Zea mays); post-emergence, Postemergence) [%] | Corn plant response rating (crop injury, 0 = no effect, 100 = complete kill) at 500 g/ha (corn (Zea mays); post-emergence, Postemergence) [%] | Corn plant response rating (crop injury, 0 = no effect, 100 = complete kill) at 125 g/ha (corn (Zea mays); pre-emergence, Preemergence) [%] | Corn plant response rating (crop injury, 0 = no effect, 100 = complete kill) at 500 g/ha (corn (Zea mays); pre-emergence, Preemergence) [%] | pest or weed control at 125 g/ha ([2]; post-emergence, Postemergence) [%] | pest or weed control at 500 g/ha ([2]; post-emergence, Postemergence) [%] | pest or weed control at 125 g/ha ([2]; pre-emergence, Preemergence) [%] | pest or weed control at 500 g/ha ([2]; pre-emergence, Preemergence) [%] | pest or weed control at 125 g/ha ([3]; post-emergence, Postemergence) [%] | pest or weed control at 500 g/ha ([3]; post-emergence, Postemergence) [%] | pest or weed control at 125 g/ha ([3]; pre-emergence, Preemergence) [%] | pest or weed control at 500 g/ha ([3]; pre-emergence, Preemergence) [%] | pest or weed control at 125 g/ha ([4]; post-emergence, Postemergence) [%] | pest or weed control at 500 g/ha ([4]; post-emergence, Postemergence) [%] | pest or weed control at 125 g/ha ([4]; pre-emergence, Preemergence) [%] | pest or weed control at 500 g/ha ([4]; pre-emergence, Preemergence) [%] | further results
Cc1cc(=O)n(-c2ccc(F)cc2)nc1Cc1ccnc(C(F)(F)F)c1 [Compound 1, 2-(4-fluorophenyl)-5-methyl-6-[[2-(trifluoromethyl)-4-pyridinyl]methyl]-3(2H)-pyridazinone] | 100 | 100 | 100 | 100 | 90 | 90 | 0 | 90 | 90 | 100 | 100 | 100 | 90 | 100 | 100 | 100 | 100 | 100 | 100 | 100 | pest or weed control at 125 g/ha ([5]; post-emergence, Postemergence): 40%; pest or weed control at 500 g/ha ([5]; post-emergence, Postemergence): 100%; pest or weed control at 125 g/ha ([5]; pre-emergence, Preemergence): 0%; pest or weed control at 500 g/ha ([5]; pre-emergence, Preemergence): 90%; plant injury at 125 g/ha ([6]; post-emergence, Postemergence): 60%; plant injury at 500 g/ha ([6]; post-emergence, Postemergence): 90%; plant injury at 125 g/ha ([6]; pre-emergence, Preemergence): 0%; plant injury at 500 g/ha ([6]; pre-emergence, Preemergence): 90%; plant injury at 125 g/ha (rice (Oryza sativa)): 20%; pest or weed control at 125 g/ha [7]: 80%; Plant response rating ([8]; 31 g ai/ha): 40; Plant response rating ([8]; 62 g ai/ha): 45; Plant response rating ([8]; 125 g ai/ha): 60; Plant response rating ([8]; 250 g ai/ha): 90
CCOc1cc(=O)n(-c2ccc(F)cc2)nc1Cc1ccnc(C(F)(F)F)c1 [Compound 25, 5-ethoxy-2-(4-fluorophenyl)-6-[[2-(trifluoromethyl)-4-pyridinyl]methyl]-3 (2H)-pyridazinone] | 80 | 90 | 90 | 100 | 70 | 80 | 50 | 50 | 80 | 90 | 100 | 100 | 70 | 90 | 100 | 100 | 100 | 100 | 100 | 100 | pest or weed control at 125 g/ha ([9]; post-emergence, Postemergence): 40%; pest or weed control at 500 g/ha ([9]; post-emergence, Postemergence): 90%; pest or weed control at 125 g/ha ([9]; pre-emergence, Preemergence): 30%; pest or weed control at 500 g/ha ([9]; pre-emergence, Preemergence): 90%; pest or weed control at 125 g/ha ([5]; post-emergence, Postemergence): 60%; pest or weed control at 500 g/ha ([5]; post-emergence, Postemergence): 100%; pest or weed control at 125 g/ha ([5]; pre-emergence, Preemergence): 40%; pest or weed control at 500 g/ha ([5]; pre-emergence, Preemergence): 100%; plant injury at 125 g/ha ([6]; post-emergence, Postemergence): 60%; plant injury at 500 g/ha ([6]; post-emergence, Postemergence): 70%; plant injury at 125 g/ha ([6]; pre-emergence, Preemergence): 30%; plant injury at 500 g/ha ([6]; pre-emergence, Preemergence): 60%; plant injury at 125 g/ha (rice (Oryza sativa)): 0%; pest or weed control at 125 g/ha [7]: 75%
